Experimental data as given in PMC5700161, “Structure of human immunoproteasome with a reversible and noncompetitive inhibitor that selectively inhibits activated lymphocytes” (Nature Communications, 2017).
“Also recorded” adds a separate entry of the source. Read-outs that look alike come from different tables or passages of the source.

Legend:
β1c = β1c (Homo sapiens, UniProt P28072); experiment: IC50 against β1c of human constitutive proteasome (Z-LLE-AMC)
Description: (§2) IC50s of all compounds against β5i and β5c (Table 2) and against β1i, β2i, β1c, and β2c (Supplementary Table 1) were determined following reported methods[8].

β1i = β1i (Homo sapiens, UniProt P28065); experiment: IC50 against β1i of human immunoproteasome (Ac-PAL-AMC)
Description: as §2

human β5i = human β5i (Homo sapiens, UniProt P20618+P28062); experiment: IC50 determination against human β5i of i-20S; conditions: for reduction in potency against β5i: in comparing to PKS21221
Description: as §2

human β5c = human β5c (Homo sapiens, UniProt P20618+P28074); experiment: IC50 determination against human β5c of c-20S
Description: as §2

β2i = β2i (Homo sapiens, UniProt P40306); experiment: IC50 against β2i of human immunoproteasome (Z-VLR-AMC)
Description: as §2

β2c = β2c (Homo sapiens, UniProt Q99436); experiment: IC50 against β2c of human constitutive proteasome (Z-VLR-AMC)
Description: as §2

β5c (c-20S) [1] = target: T1, β5c (c-20S) (Homo sapiens, UniProt P20618+P28074); experiment: Kinetics studies of modality of inhibition against β5c; format: biochemical
Text: Data as in d are shown in double reciprocal plots in e, and data from f in g. […] Data are means ± SEM of three independent experiments
(§1) With increasing concentrations of PKS21004, both V max and K M decreased (Fig. 1d–g and Supplementary Fig. 1). […] This class thus joins a growing list of noncompetitive proteasome inhibitors[5],[30].

β5i (i-20S) = target: T2, β5i (i-20S) (Homo sapiens, UniProt P20618+P28062); experiment: Kinetics studies of modality of inhibition against β5i; format: biochemical
T2 construct: purchased Boston Biochem
Description: Data as in d are shown in double reciprocal plots in e, and data from f in g. […] Data are means ± SEM of three independent experiments […]
as §1
Supplementary Figure 11. Inhibition kinetics of PKS21221 against i-20S β5i. (A) Steady state velocities of the Ac-ANW-AMC hydrolysis at 10, 15, 25, 35 µM by i-20S β5i (0.4 nM) in the presence of PKS21221 at indicated concentrations were determined at 37 °C and plotted by RFU versus substrate concentration (A); values of KM, Ki and α were estimated by PRISM using equation V = (Vmax / (1 + I / (α*Ki))) * S / (KM * (1+ I / Ki) / (1 + I / (α*Ki)) + S); (B) Lineweaver-Burk plot of the data in (A). (C) Plot of KM versus concentrations of PKS21221 indicates a mixed type inhibition. (D) Plot of Vmax versus concentrations of PKS21221.
(1 picture or pasted object on this page, not shown here)

β5c (c-20S) [2] = target: T1, β5c (c-20S); experiment: Reversibility: dialysis of pre-incubated c-20S and inhibitor; format: biochemical; conditions: dialysis of pre-incubated mixture of c-20S and inhibitor
Text: as §1

[3] = read-out: IC50 1c - LLE (β1c), substrate Z-LLE-AMC
[4] = read-out: IC50 1i - PAL (β1i), substrate Ac-PAL-AMC
[5] = read-out: IC50 2i - VLR (β2i), substrate Z-VLR-AMC
[6] = read-out: IC50 2c - VLR (β2c), substrate Z-VLR-AMC
[7] = read-out: IC50 against human β5i
[8] = fit to equation for noncompetitive inhibitors

Structure (SMILES)	IC50 (β1c; [3]) [µM]	IC50 (β1i; [4]) [µM]	IC50 (β2i; [5]) [µM]	IC50 (β2c; [6]) [µM]	inhibitory activity against β5i (in words) (human β5i)	other results
CC(=O)N[C@@H](CC(=O)NC(C)(C)C)C(=O)NCCNC(=O)c1cc(-c2ccccc2F)ccc1F [PKS21294]	> 50	> 50	> 50	> 50		reduction in potency against β5i (human β5i): 150 fold; reduction in potency against β5c (human β5c; in comparing to PKS21221): 120 fold
CC(C)(C)NC(=O)C[C@H](NC(=O)OC(C)(C)C)C(=O)NCCNC(=O)c1cc(-c2ccccc2F)ccc1F [PKS21277]	> 50	> 50	> 50	> 50	modestly potent	selectivity for β5i over β5c (human β5i): 36 fold
Cc1ccc(S(=O)(=O)N[C@@H](CC(N)=O)C(=O)NCCNC(=O)c2cc(-c3ccccc3F)ccc2F)cc1 [PKS21288]	> 50	> 50	> 50	> 50	eliminated inhibitory activity	inhibitory activity against β5c (in words) (human β5c): eliminated inhibitory activity
CC(C)(C)NC(=O)C[C@H](NC(=O)CCc1ccccc1)C(=O)NCCNC(=O)c1ccc(-c2ccccc2)cc1 [PKS21003]					inactive	IC50 (β1c): > 50 µM; IC50 (β1i): > 50 µM; IC50 (human β5i): > 100 µM; IC50 (human β5c): > 100 µM; inhibitory activity against β5c (in words) (human β5c): inactive; IC50 (β2i): > 50 µM; IC50 (β2c): > 50 µM
CC(C)(C)NC(=O)C[C@H](NC(=O)CCc1ccccc1)C(=O)NCCNC(=O)c1cc(-c2ccccc2F)ccc1F [PKS21187]	> 50	> 50	> 50	> 50		selectivity for β5i over β5c (human β5i): ~ 20 fold; IC50 (human β5i; [7]): 0.015 µM
CC(C)(C)NC(=O)C[C@H](NC(=O)CCc1ccccc1)C(=O)NCCNC(=O)c1ccc2ccccc2c1 [PKS21025]	> 50	> 50	> 50	> 50		selectivity for β5i over β5c (human β5i): 26 fold; improvement of potency against β5i (human β5i; relative to PKS3080): 3 fold
CC(C)(C)NC(=O)C[C@H](NC(=O)CCc1ccccc1)C(=O)NCCNC(=O)c1cccc(-c2ccc(F)cc2)c1 [PKS21026]	> 50	> 50	> 50	> 50		
CC(C)(C)NC(=O)C[C@H](NS(=O)(=O)C1CC1)C(=O)NCCNC(=O)c1cc(-c2ccccc2F)ccc1F [PKS21293]	> 50	> 50	> 50	> 50		selectivity for β5i over β5c (human β5i): 64 fold; reduction in potency against β5i (human β5i): 3.7 fold
CC(C)(C)NC(=O)C[C@H](NC(=O)CCc1ccccc1)C(=O)NCCNC(=O)c1cccc(-c2ccc(C#N)cc2)c1 [PKS21028]	> 50	> 50	> 50	> 50		
CC(C)(C)NC(=O)C[C@H](NC(=O)CCc1ccccc1)C(=O)NCCNC(=O)c1cccc(-c2ccccc2)c1 [PKS21004]						IC50 (β1c): > 50 µM; α for β5c (αc-20S) (β5c (c-20S) [1]): 0.65 and ≈ 0.65; Ki (β5c (c-20S) [1]; [8]): 0.55 µM; modality of inhibition of β5c (β5c (c-20S) [1]; versus substrate): noncompetitively; IC50 (β1i): > 50 µM; Hill coefficient constant, inhibition of β5i (human β5i): ~ 1; IC50 (human β5i): 0.058 µM; α for β5i (αi-20S) (β5i (i-20S)): ≈ 0.28; α for β5i (β5i (i-20S); as printed in legend of Fig. 1): 0.28; Ki (β5i (i-20S); [8]): 0.077 µM; modality of inhibition of β5i (β5i (i-20S); versus substrate): noncompetitively; reversibility of β5c inhibition; β5c activity after dialysis (β5c (c-20S) [2]): reversibly inhibits; also recorded: fully restored; Hill coefficient constant, inhibition of β5c (human β5c): ~ 1; IC50 (human β5c): 0.326 µM; IC50 (β2i): > 50 µM; IC50 (β2c): > 50 µM
CC(CNC(=O)c1cccc(-c2ccccc2)c1)NC(=O)[C@H](CC(=O)NC(C)(C)C)NC(=O)CCc1ccccc1 (some centres unmarked) [PKS21018]	> 50	> 50	> 50	> 50		
CC(C)(C)NC(=O)C[C@H](NC(=O)CCc1ccccc1)C(=O)NCCNC(=O)c1cc(-c2cccc(F)c2)ccc1F [PKS21195]	> 50	> 50	> 50	> 50		
CC(C)(C)OC(=O)N[C@@H](CC(N)=O)C(=O)NCCNC(=O)c1cc(-c2ccccc2F)ccc1F [PKS21281]	> 50	> 50	> 50	> 50	abolished the inhibitory activities	inhibitory activity against β5c (in words) (human β5c): abolished the inhibitory activities
CC(C)(C)NC(=O)C[C@H](NC(=O)CCc1ccccc1)C(=O)NCCNC(=O)c1cccc2ccccc12 [PKS3080]	> 50	> 50	> 50	> 50		IC50 (human β5i; [7]): 0.37 µM; IC50 (human β5c; read-out: IC50 against human β5c): 1.22 µM
Cc1ccc(S(=O)(=O)N[C@@H](C)C(=O)NCCNC(=O)c2cc(-c3ccccc3F)ccc2F)cc1 [PKS21290]	> 50	> 50	> 50	> 50	eliminated inhibitory activity	inhibitory activity against β5c (in words) (human β5c): eliminated inhibitory activity
Cc1ccc(S(=O)(=O)NCC(=O)NCCNC(=O)c2cc(-c3ccccc3F)ccc2F)cc1 [PKS21289]	> 50	> 50	> 50	> 50	eliminated inhibitory activity	inhibitory activity against β5c (in words) (human β5c): eliminated inhibitory activity
CC(C)(C)NC(=O)C[C@H](NC(=O)CCc1ccccc1)C(=O)NCCNC(=O)c1cc(-c2ccccc2)ccc1F [PKS21196]	> 50	> 50	> 50	> 50		
